Reference: article PMC8438204, “Unraveling the Thermodynamics of Ultra-tight Binding of Intrinsically Disordered Proteins” (Frontiers in Molecular Biosciences, 2021)
Read-outs that look alike come from different tables or passages of the source. Marks after values point to notes of the source that are not given here.

How the values were obtained:
HigB2 toxin [1] = target: T1, HigB2 toxin (Vibrio cholerae serotype O1, UniProt Q9KMA6); assay: Competition ITC (global fit of direct and competition titrations with nanobody-HigB2 complex); assay type: binding; design: made in house; details: for ΔG (association): competition ITC (Nb6/Nb10), VP-ITC, 4 µM HigB2; for ΔG (association) / ΔH (association) / −TΔS (association): 20 mM sodium phosphate pH 7.5, 150 mM NaCl, three replicates
T1 sequence (Q9KMA6 1-110): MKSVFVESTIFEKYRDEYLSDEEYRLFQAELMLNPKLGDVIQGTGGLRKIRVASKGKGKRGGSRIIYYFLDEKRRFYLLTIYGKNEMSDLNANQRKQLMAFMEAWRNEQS

CcdB2 = details: ref Drobnak et al., 2013, cited from earlier work
Protocol: Supplement DataSheet1.docx, table 1: Table S1. Thermodynamic parameters and structural properties of the complexes. All parameters are reported at T = 25°C. | column: Thermodynamic parameters || Nonetheless, a handful of examples of IDP binders with ultra-high affinity have been characterized to date. […] Complexes are ordered according to the degree of energy optimization as estimated by the ΔH bind/ASAint values. For the HigA2_3-23-HigB2 complex the degree of energy optimization is similar to one observed for the pairs of globular high affinity binders (Supplementary Table S1, Figure 3A). […] The high affinit ...

[2] = tested on: E9-Im9 (colicin DNase - immunity protein); details: ref Keeble et al., 2006, cited from earlier work
Protocol: Supplement DataSheet1.docx, table 1: Table S1. Thermodynamic parameters and structural properties of the complexes. All parameters are reported at T = 25°C. | column: Thermodynamic parameters

HigB2 toxin [3] = target: T1, HigB2 toxin; details: full-length HigA2; temperature-dependent ITC; ref Hadži et al., 2017a; cited from earlier work
[4] = 25°C, competition ITC, listed as Full-length HigA2

## CC(C)C[C@H](NC(=O)[C@H](C)NC(=O)[C@H](CO)NC(=O)[C@H](CO)NC(=O)[C@H](CC(C)C)NC(=O)[C@H](CCC(=O)O)NC(=O)[C@H](C)NC(=O)[C@H](Cc1ccccc1)NC(=O)[C@H](CC(C)C)NC(=O)[C@H](CC(=O)O)NC(=O)[C@H](CCCNC(=N)N)NC(=O)[C@@H](N)CC(N)=O)C(=O)N[C@H](C(=O)N[C@@H](CCC(=O)O)C(=O)N[C@@H](C)C(=O)N[C@@H](CCCCN)C(=O)N[C@@H](CCC(N)=O)C(=O)N[C@@H](Cc1c[nH]cn1)C(=O)N[C@@H](CO)C(=O)N[C@@H](CCC(=O)O)C(=O)NCC(=O)N[C@@H](Cc1c[nH]c2ccccc12)C(=O)O)C(C)C [HigA2_3-23]
HigB2 toxin [1]
  Kd: 3 pM

## CcdA37-72 (RRLRAERWKAENQEGMAEVARFIEMNGSFADENRDW; UniProt P62552 37-72, looked up, fragment)
CcdB2; 25°C, binding contribution
  -TΔS (binding): -0.5 kcal/mol
  ΔG (binding): -19.4 kcal/mol
  ΔH (binding): -18.9 kcal/mol
CcdB2; 25°C, folding contribution
  -TΔS (folding): 20.4 kcal/mol
  ΔG (folding): 3.8 kcal/mol
  ΔH (folding): -16.6 kcal/mol
CcdB2; 25°C
  -TΔS (association): 19.9 ± 0.3 kcal/mol
  ΔG (association): -15.6 ± 0.1 kcal/mol
  ΔH (association): -35.5 ± 0.2 kcal/mol
CcdB2
  ΔCp (association): -0.63 ± 0.02 kcal mol^-1 K^-1

## E9-Im9
[2]; 25°C
  -TΔS: -8.1 ± 0.5 kcal/mol
  ΔG: -18.6 ± 0.1 kcal/mol
[2]
  ΔCp: -0.45 kcal mol^-1 K^-1

## HigA2
HigB2 toxin [3]
  ΔCp (association): −0.95^a kcal mol^−1 K^-1
HigB2 toxin [1]; 25°C
  ΔG (association): -14.7 kcal/mol
HigB2 toxin [1]; 25°C, listed as Full-length HigA2
  ΔG (association): -14.7 ± 0.9 kcal/mol
HigB2 toxin [1]; 25°C, competition ITC
  ΔH (association): -31.5 kcal/mol
  −TΔS (association): 16.8 kcal/mol
HigB2 toxin [1]; [4]
  ΔH (association): -31.5 ± 1.0 kcal/mol
  −TΔS (association): 16.8 ± 1.9 kcal/mol
HigB2 toxin [1]; 25°C, competition ITC, value given in abstract, introduction, discussion and Figure 4 under the name HigA2, read-out: KD stated for HigA2-HigB2
  Kd: 3 pM
